Data as given in patent publication US5616615A, “Enaminone esters” (priority 1995, dated 1997).
Read-outs that look alike come from different tables or passages of the source.

Columns and labels:
[1] = tested on: Corneal Kindled rats; test: Corneal kindling; assay type: in vivo; settings: for Ave. seizure score: ranking 0-5; for ED50: Rattus norvegicus
Protocol: Corneal kindling studies were performed in our laboratories on 12 and 27 and the results are shown in Tables XI and XII and FIGS. 1A and 1B. Comparative data for the commercial products are included. Seizures evoked in electroshock-kindled rats provide a suitable model consistent with complex partial seizures evolving into generalized motor seizures in humans.
^a Rats kindled to Stage 5. Endpoint was reduction from Stage 5 to […]

[2] = tested on: Amygdala Kindled Seizures; test: Suppression of amygdala kindled seizures; assay type: in vivo
Protocol: Compounds 12 and 27 were evaluated in our laboratory for suppression of amygdala kindled seizures.

[3] = tested on: adenosine uptake; test: adenosine uptake assay
[4] = tested on: bicuculline, picrotoxin, pentylenetetrazol, and strychnine; settings: in vivo
Protocol: (§1) Both 12 and 27 were evaluated in Phase V of the ADD Program evaluation scheme. Phase V provides quantification against bicuculline, picrotoxin, pentylenetetrazol, and strychnine. This screen provides information on the mechanism of action of the anticonvulsant activity. Bicuculline, picrotoxin, and strychnine correspond to GABA inhibitory function, chloride channel inhibition and inhibition by glycine respectively.

[5] = tested on: pentylenetetrazol; test: Phase V quantification against pentylenetetrazol; assay type: in vivo; settings: dose not given
Protocol: as §1

[6] = tested on: Maximal electroshock seizures; test: MES maximal electroshock seizure test, mice ip; assay type: in vivo; design: TPE (time of peak effect), activity: unit not given here; settings: ip; for responders at 100 mg/kg: read-out: MES, animals protected/tested (converted); for responders at 300 mg/kg: read-out: MES, animals protected/tested
Protocol: Three tests were performed:
1. MES--Electroshock Seizure Test
(§2) Maximal electroshock seizures are elicited with a 60-cycle alternating current of 50 mA intensity (5-7 times that necessary to elicit minimal electroshock seizures) delivered via corneal electrodes for 0.2 seconds. A drop of 0.9% saline is instilled in the eye prior to application of the electrodes in order to […].

[7] = tested on: benzodiazepine receptor; test: benzodiazepine receptor binding evaluation
[8] = tested on: bicuculline; test: Phase V quantification against bicuculline; assay type: in vivo; settings: dose not given
Protocol: as §1

[9] = tested on: GABA receptor; test: GABA receptor binding test
[10] = in vivo; settings: mouse, in vivo, ip
[11] = tested on: strychnine; test: Phase V quantification against strychnine; assay type: in vivo; settings: dose not given
Protocol: as §1

[12] = tested on: seizures; test: Anticonvulsant evaluation (ASP phase I / overall); assay type: in vivo, mice
Summary of the method: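 Male Carworth Farms #1 mice; maximal electroshock seizures elicited by 60-cycle AC, 50 mA, 0.2 s via corneal electrodes after a drop of 0.9% saline in the eye. Animals observed for 30 minutes.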

[13] = tested on: Subcutaneous Pentylenetetrazol seizure; test: sc Met subcutaneous pentylenetetrazol (Metrazol) seizure test, mice; assay type: in vivo; settings: Mus musculus, sc, read-out: scMet, animals protected/tested (converted)
[14] = in vivo; settings: rat, po
Text: (§3) This oral screen is designated as phase VI.

[15] = Kinetic hydrolysis; assay type: physicochemical; settings: for average absorbance value: over incubation periods
Protocol: This solution was 4.0×10^-5 M. Phosphate buffer, pH 7.4 and water were used in this study. All experiments were performed in triplicate. A volume of the stock ethanol solution of 1 (0.2 mL), was diluted with the appropriate solvent to make 1 mL of solution. Each mixture was sealed in a Teflon capped reaction vial and incubated at 37° C. for the same time periods as indicated in the ip rat toxicity study (Tables X and X-A). After each time period, the vials were removed from the incubator and quenched at -80° C. until ready for analysis. Initial scan (t=O h) indicated a λ max at 311 nm for 27. […] After all samples were incubated, the UV spectra was taken from 190-500 nm using the respective solvent as a blank. The results were plotted in terms of absorbance v, time of incubation and the absorbance values.

[16] = tested on: picrotoxin; test: Phase V quantification against picrotoxin; assay type: in vivo; settings: dose not given
Protocol: as §1

[17] = tested on: Maximal electroshock seizures; test: Phase VI oral MES test, rats; assay type: in vivo; settings: oral; for responders at 6 mg/kg / responders at 10 mg/kg: Rattus norvegicus, read-out: MES, animals protected/tested (converted)
Text: as §2, §3

[18] = Neurotoxicity, rats ip; settings: 100 mg/kg
Protocol: The rotorod test is used to elevate neurotoxicity. The animal is placed on a 1 inch diameter knurled plastic rod rotating at 6 rpm. […] Neurologic toxicity is defined as the failure of the animal to remain on the rod for 1 minute and the results are expressed as the number of animals protected/the number of animals tested.
The toxicity evaluation for the commercial agents as previously indicated was based on the onset of ataxia.

## COC(=O)C1C(=O)C=C(Nc2ccc(Cl)cc2)CC1C (centres unmarked) [Compound 27]
[1]; 20 mg/kg
  % Reduction: 40%
  Ave. seizure score: 3.0
[1]; 30 mg/kg
  % Reduction: 40%
  Ave. seizure score: 3.0
[1]; 40 mg/kg
  % Reduction: 49%
  Ave. seizure score: 2.6
[1]; 50 mg/kg
  % Reduction: 87%
  Ave. seizure score: 1.7
[1]; po, 0.5 h, read-out: ED50 (reduction from Stage 5 to Stage 4)
  ED50: 31.2 mg/kg
[1]; read-out: ED50, corneal kindling
  ED50: 31.2 mg/kg
[2]; 350 mg/kg
  Afterdischarge Amygdala: Duration: 79.8 s
  Afterdischarge Cortex: Duration: 79.6 s
  Afterdischarge Cortex: Latency: 2.7 s
  Behavioral Seizure: Duration: 82.3 s
  Behavioral Seizure: Latency: 2.1 s
  Forelimb Clonus: Duration: 45.3 s
  Forelimb Clonus: Latency: 9.2 s
  Seizure Stage: 5.0
[2]; in vivo
  suppression of amygdala kindled seizures: no significant activity
[3]
  adenosine uptake: inactive
[4]
  threshold to chemostimulants: did not lower the threshold to these chemostimulants
[5]
  protection against pentylenetetrazol: uniformly inactive
[6]; Mus musculus, 0.5 h, 30 min
  responders at 100 mg/kg: 100%
  responders at 300 mg/kg: 100%
[6]; Mus musculus, 4 h, 4 h
  responders at 100 mg/kg: 0%
  responders at 300 mg/kg: 100%
[6]; Mus musculus, Phase II, time of peak effect
  ED50: 26.2 mg/kg
[6]; Phase II
  TPE (time of peak effect), activity: 0.5
[7]
  benzodiazepine receptor binding: inactive
[8]
  protection against bicuculline: uniformly inactive
[9]
  GABA receptor binding: inactive
[10]
  TD50: 255 mg/kg
  TPE (time of peak effect), toxicity: 2
  selectivity ratio: 9.72
[11]
  protection against strychnine: uniformly inactive
[12]; 27 vs 16, 28 vs 17, 29 vs 20
  activity compared with benzylamine counterpart: activity is enhanced in all cases
[12]; Mus musculus, ip, Phase I, read-out: ASP Classification
  minimal effective dose: < 100 mg/kg
[12]; mouse, in vivo
  anticonvulsant activity: anticonvulsant activity was observed
[13]; 0.5 h, 30 min
  responders at 100 mg/kg: 0%
  responders at 300 mg/kg: 0%
[13]; 4 h, 4 h
  responders at 100 mg/kg: 0%
  responders at 300 mg/kg: 0%
[14]
  TD50: > 380 mg/kg
  selectivity ratio: 65.6
[14]; 6 mg/kg
  Tox, animals toxic/tested: 0/4
[14]; 10 mg/kg
  Tox, animals toxic/tested: 0/4
[15]; aqueous media, 37° C.
  average absorbance value: 0.929 (range 0.789-1.069)
[15]; pH 7.4 buffer, 37° C.
  average absorbance value: 1.112 (range 0.983-1.240)
[15]; water and pH 7.4 buffer, 37° C.
  change of wavelength (λ max) on incubation: the wavelength did not change from 311 nm
[15]; water vs pH 7.4 buffer
  significance of absorbance differences: not significant
[16]
  protection against picrotoxin: uniformly inactive
[17]; Phase VI, rat
  ED50: 5.79 mg/kg
[17]; 0.5 h, 0.50 h
  responders at 6 mg/kg: 75%
  responders at 10 mg/kg: 100%
[17]; 1.00 h
  responders at 6 mg/kg: 50%
  responders at 10 mg/kg: 100%
[17]; 2.00 h
  responders at 6 mg/kg: 25%
  responders at 10 mg/kg: 100%
[17]; 0.25 h
  responders at 10 mg/kg: 75%
[17]; 4.00 h
  responders at 10 mg/kg: 75%
[18]; 0.25 h (Table X-A)
  animals displaying neurotoxicity/tested: 0/8
[18]; 0.50 h (Table X-A)
  animals displaying neurotoxicity/tested: 3/8
[18]; 1.00 h (Table X-A)
  animals displaying neurotoxicity/tested: 6/8
[18]; 2.00 h (Table X-A)
  animals displaying neurotoxicity/tested: 7/8
[18]; 4.00 h (Table X-A)
  animals displaying neurotoxicity/tested: 2/8
[18]; 6.00 h (Table X-A)
  animals displaying neurotoxicity/tested: 1/8
[18]; 8.00 h (Table X-A)
  animals displaying neurotoxicity/tested: 0/8
[18]; 24.00 h (Table X-A)
  animals displaying neurotoxicity/tested: 2/8
